Measurements published in patent US11297861B2, “Sweet protein from truffle” (MycoTechnology, Inc., priority 2020, dated 2022).

System: sweet taste
Assay: CATA time intensity of the sweet sensation, trained panel
Assay type: in vivo, human
Details: 10% sucrose in water
Description: Evaluation of thaumatin, sucrose, and SEQ ID NO:21 was carried out using a CATA (click all that apply) time intensity of the sweet sensation of named analytes in water at 0.045 mg/ml for proteins and 10% sucrose. Methodology: Time Intensity Technique; Data collection software: EyeQuestion, responses recorded every 2.57 seconds; Scaling Method: a 15-point sweet scale, e.g. score 5=5% sucrose, score 10=10% sucrose; Evaluation Protocol: small volume sip, tilt and spit test. There were 3-6 panelists and 2 replicates. All samples were blinded and presented with randomized 3-digit codes. Training Strategies: An intense training on sweet scale over 6 weeks on 15-point sweet scale to confidently assign sweet values. Due to unique sweet behavioral patterns, it is necessary to train time intensity principles over 3 weeks. Samples were tasted with a stopwatch to note times and help reach a consensus. # of Panelists: 3-6, # of replications: 2. All samples were blinded and presented with randomized 3-digit codes. Statistical analysis: due to the small # of panelists, a statistical analysis cannot be performed.

Question: With OC[C@H]1O[C@@](CO)(O[C@H]2O[C@H](CO)[C@@H](O)[C@H](O)[C@H]2O)[C@@H](O)[C@@H]1O [SUC, sucrose] as the compound, how does the “time to threshold sweetness (Intensity <1)” value read?
Answer: Its value is 162 s.
